# Results from PubChem BioAssay AID308 (DTP/NCI, 2004).
# Several values for one entry are separate records, joined by “and”; a condition that tells them apart may be missing. Equal values may be shown once. Toxic doses and inconclusive results are not listed.
# System: BDF1 mice, L1210 6-MP/6-TG resistant leukemia ip, survival T/C
# Assay: NCI In Vivo Anticancer Drug Screen. Data for tumor model L1210 Leukemia resistant to 6-MP and 6-Thioguanine; NSC 755, NSC 752 (intraperitoneal) in B6D2F1 (BDF1) mice
# Details: endpoint: mean survival time, higher = longer survival
# Procedure: The antitumor activity of compounds was measured in mice bearing transplantable tumors. Survival or tumor size were measured and the results are expressed as the measurement made in the treated group (T) divided by the measurement made in the vehicle treated control group (C). The tumor model used in this assay is L1210 Leukemia resistant to 6-MP and 6-Thioguanine; NSC 755, NSC 752 (intraperitoneal) in B6D2F1 (BDF1) mice
# [1] = dose: 75.0 mg/kg/injection, schedule: Q01DX Z (ip), vehicle: carboxymethylcellulose (CMC)
# [2] = dose: 150.0 mg/kg/injection, schedule: Q01DX Z (ip), vehicle: carboxymethylcellulose (CMC)
# [3] = dose: 20.0 mg/kg/injection, schedule: Q01DX Z (ip), vehicle: carboxymethylcellulose (CMC)
# [4] = dose: 30.0 mg/kg/injection, schedule: Q01DX Z (ip), vehicle: carboxymethylcellulose (CMC)
# [5] = dose: 40.0 mg/kg/injection, schedule: Q01DX Z (ip), vehicle: carboxymethylcellulose (CMC)
# [6] = dose: 60.0 mg/kg/injection, schedule: Q01DX Z (ip), vehicle: carboxymethylcellulose (CMC)
# [7] = dose: 100.0 mg/kg/injection, schedule: Q01DX Z (ip), vehicle: carboxymethylcellulose (CMC)
# [8] = dose: 125.0 mg/kg/injection, schedule: Q01DX Z (ip), vehicle: carboxymethylcellulose (CMC)
# [9] = dose: 250.0 mg/kg/injection, schedule: Q01DX Z (ip), vehicle: carboxymethylcellulose (CMC)
# [10] = dose: 375.0 mg/kg/injection, schedule: Q01DX Z (ip), vehicle: carboxymethylcellulose (CMC)
# [11] = dose: 3.75 mg/kg/injection, schedule: Q01DX Z (ip), vehicle: carboxymethylcellulose (CMC)
# [12] = dose: 7.5 mg/kg/injection, schedule: Q01DX Z (ip), vehicle: carboxymethylcellulose (CMC)
# [13] = dose: 93.0 mg/kg/injection, schedule: Q01DX Z (ip), vehicle: carboxymethylcellulose (CMC)
# [14] = dose: 187.0 mg/kg/injection, schedule: Q01DX Z (ip), vehicle: carboxymethylcellulose (CMC)
compound,measurement,setting,value
OCC1OC(n2cnc3c(=S)nc[nH]c32)C(O)C1O (stereo not drawn),T/C,"dose: 37.5 mg/kg/injection, schedule: Q01DX Z (ip), vehicle: carboxymethylcellulose (CMC)",114 % of control
same,T/C,"dose: 50.0 mg/kg/injection, schedule: Q01DX015 (ip), vehicle: carboxymethylcellulose (CMC)",93 % of control
same,T/C,"dose: 75.0 mg/kg/injection, schedule: Q01DX015 (ip), vehicle: carboxymethylcellulose (CMC)",93 % of control
same,T/C,[1],92 % of control
same,T/C,"dose: 100.0 mg/kg/injection, schedule: Q01DX015 (ip), vehicle: carboxymethylcellulose (CMC)",94 % of control
same,T/C,"dose: 112.0 mg/kg/injection, schedule: Q01DX010 (ip), vehicle: carboxymethylcellulose (CMC)",94 % of control
same,T/C,"dose: 120.0 mg/kg/injection, schedule: Q01DX001 (ip), vehicle: carboxymethylcellulose (CMC)",100 % of control
same,T/C,"dose: 125.0 mg/kg/injection, schedule: Q01DX015 (ip), vehicle: carboxymethylcellulose (CMC)",90 % of control
same,T/C,"dose: 150.0 mg/kg/injection, schedule: Q01DX010 (ip), vehicle: carboxymethylcellulose (CMC)",90 % of control
same,T/C,"dose: 150.0 mg/kg/injection, schedule: Q01DX015 (ip), vehicle: carboxymethylcellulose (CMC)",95 % of control
same,T/C,[2],97 % of control
same,T/C,"dose: 180.0 mg/kg/injection, schedule: Q01DX001 (ip), vehicle: alkali diluted with saline",110 % of control
same,T/C,"dose: 180.0 mg/kg/injection, schedule: Q01DX001 (ip), vehicle: carboxymethylcellulose (CMC)",100 % of control
same,T/C,"dose: 225.0 mg/kg/injection, schedule: Q01DX010 (ip), vehicle: carboxymethylcellulose (CMC)",88 % of control
same,T/C,"dose: 270.0 mg/kg/injection, schedule: Q01DX001 (ip), vehicle: alkali diluted with saline",103 % of control
same,T/C,"dose: 270.0 mg/kg/injection, schedule: Q01DX001 (ip), vehicle: carboxymethylcellulose (CMC)",100 % of control
same,T/C,"dose: 300.0 mg/kg/injection, schedule: Q01DX010 (ip), vehicle: carboxymethylcellulose (CMC)",91 % of control
same,T/C,"dose: 300.0 mg/kg/injection, schedule: Q01DX Z (ip), vehicle: carboxymethylcellulose (CMC)",92 % of control
same,T/C,"dose: 400.0 mg/kg/injection, schedule: Q01DX001 (ip), vehicle: alkali diluted with saline",99 % of control
same,T/C,"dose: 400.0 mg/kg/injection, schedule: Q01DX001 (ip), vehicle: carboxymethylcellulose (CMC)",96 % of control
same,T/C,"dose: 600.0 mg/kg/injection, schedule: Q01DX001 (ip), vehicle: alkali diluted with saline",102 % of control
same,T/C,"dose: 600.0 mg/kg/injection, schedule: Q01DX001 (ip), vehicle: carboxymethylcellulose (CMC)",101 % of control
same,T/C,"dose: 900.0 mg/kg/injection, schedule: Q01DX001 (ip), vehicle: alkali diluted with saline",100 % of control
O=c1[nH]c(=O)n(C2CC(O)C(CO)O2)cc1I (stereo not drawn),T/C,[3],108 % of control
same,T/C,"dose: 25.0 mg/kg/injection, schedule: Q01DX Z (ip), vehicle: carboxymethylcellulose (CMC)",121 % of control
same,T/C,[4],95 % of control
same,T/C,[5],87 % of control
same,T/C,[6],108 % of control
same,T/C,[1],182 % of control
same,T/C,[7],154 % of control
same,T/C,[8],115 % of control
same,T/C,[9],100 % of control
same,T/C,[10],93 % of control
N#[N+]c1cnc([O-])[nH]c1=O,T/C,"dose: 5.0 mg/kg/injection, schedule: Q01DX Z (ip), vehicle: alkali diluted with saline",166 % of control
same,T/C,"dose: 7.5 mg/kg/injection, schedule: Q01DX Z (ip), vehicle: alkali diluted with saline",177 % of control
same,T/C,"dose: 10.0 mg/kg/injection, schedule: Q01DX Z (ip), vehicle: alkali diluted with saline",150 % of control
same,T/C,"dose: 15.0 mg/kg/injection, schedule: Q01DX Z (ip), vehicle: alkali diluted with saline",95 % of control
O=c1cnn(C2OC(CO)C(O)C2O)c(=O)[nH]1 (stereo not drawn),T/C,"dose: 62.5 mg/kg/injection, schedule: Q01DX Z (ip), vehicle: saline",115 % of control
same,T/C,"dose: 500.0 mg/kg/injection, schedule: Q01DX Z (ip), vehicle: saline",120 % of control
same,T/C,"dose: 750.0 mg/kg/injection, schedule: Q01DX Z (ip), vehicle: saline",110 % of control
same,T/C,"dose: 1000.0 mg/kg/injection, schedule: Q01DX Z (ip), vehicle: saline",109 % of control
O=C(Nc1ccc(C2=NCCCN2)cc1)c1ccc(C(=O)Nc2ccc(C3=NCCCN3)cc2)cc1,T/C,"dose: 0.46 mg/kg/injection, schedule: Q01DX Z (ip), vehicle: carboxymethylcellulose (CMC)",106 % of control
same,T/C,"dose: 1.87 mg/kg/injection, schedule: Q01DX Z (ip), vehicle: carboxymethylcellulose (CMC)",178 % of control
same,T/C,[11],154 % of control and 195 % of control
same,T/C,[12],155 % of control
same,T/C,"dose: 15.0 mg/kg/injection, schedule: Q01DX Z (ip), vehicle: carboxymethylcellulose (CMC)",113 % of control
Nc1nc(=S)c2ncn(C3OC(CO)C(O)C3O)c2[nH]1 (stereo not drawn),T/C,[11],96 % of control
same,T/C,"dose: 5.0 mg/kg/injection, schedule: Q01DX Z (ip), vehicle: carboxymethylcellulose (CMC)",93 % of control
same,T/C,[12],107 % of control
same,T/C,"dose: 10.0 mg/kg/injection, schedule: Q01DX Z (ip), vehicle: carboxymethylcellulose (CMC)",93 % of control
O=c1[nH]c(=O)n(C2CC(O)C(CO)O2)cc1Br (stereo not drawn),T/C,[3],112 % of control
same,T/C,[4],114 % of control
same,T/C,[5],102 % of control
same,T/C,[6],98 % of control
same,T/C,[13],117 % of control
same,T/C,[14],115 % of control
same,T/C,[10],112 % of control
same,T/C,"dose: 500.0 mg/kg/injection, schedule: Q01DX Z (ip), vehicle: carboxymethylcellulose (CMC)",109 % of control
O=C1C(NC(=O)C2CCCCC2)=C(N2CC2)C(=O)C(NC(=O)C2CCCCC2)=C1N1CC1,T/C,"dose: 31.0 mg/kg/injection, schedule: Q01DX Z (ip), vehicle: carboxymethylcellulose (CMC)",99 % of control
same,T/C,"dose: 62.5 mg/kg/injection, schedule: Q01DX Z (ip), vehicle: carboxymethylcellulose (CMC)",101 % of control
same,T/C,[13],93 % of control
same,T/C,[8],87 % of control
same,T/C,[14],92 % of control
same,T/C,[9],90 % of control
CSc1ncnc2c1ncn2CO,T/C,"dose: 50.0 mg/kg/injection, schedule: Q01DX009 (ip), vehicle: other",104 % of control
same,T/C,"dose: 100.0 mg/kg/injection, schedule: Q01DX009 (ip), vehicle: other",110 % of control
C[C@@H]1C[C@H]2CC[C@H](O2)[C@H](C)C(=O)O[C@@H](C)C[C@@H]2CC[C@@H](O2)[C@@H](C)C(=O)O[C@H](C)C[C@H]2CC[C@H](O2)[C@H](C)C(=O)O[C@@H](C)C[C@@H]2CC[C@@H](O2)[C@@H](C)C(=O)O1,T/C,"dose: 10.0 mg/kg/injection, schedule: Q01DX Z (ip), vehicle: other",101 % of control
same,T/C,"dose: 15.0 mg/kg/injection, schedule: Q01DX Z (ip), vehicle: other",101 % of control
same,T/C,"dose: 20.0 mg/kg/injection, schedule: Q01DX Z (ip), vehicle: other",104 % of control
same,T/C,"dose: 30.0 mg/kg/injection, schedule: Q01DX Z (ip), vehicle: other",94 % of control
same,T/C,"dose: 45.0 mg/kg/injection, schedule: Q01DX Z (ip), vehicle: carboxymethylcellulose (CMC)",100 % of control
same,T/C,"dose: 90.0 mg/kg/injection, schedule: Q01DX Z (ip), vehicle: carboxymethylcellulose (CMC)",93 % of control
same,T/C,"dose: 180.0 mg/kg/injection, schedule: Q01DX Z (ip), vehicle: carboxymethylcellulose (CMC)",96 % of control
same,T/C,"dose: 360.0 mg/kg/injection, schedule: Q01DX Z (ip), vehicle: carboxymethylcellulose (CMC)",95 % of control
CCn1cnc2c(=S)nc[nH]c21,T/C,"dose: 50.0 mg/kg/injection, schedule: Q01DX Z (ip), vehicle: carboxymethylcellulose (CMC)",91 % of control
same,T/C,[1],94 % of control
same,T/C,[7],92 % of control
same,T/C,[2],87 % of control
O=C(OCC1OC(n2cnc3c(=S)nc[nH]c32)C(OC(=O)c2ccc([N+](=O)[O-])cc2)C1OC(=O)c1ccc([N+](=O)[O-])cc1)c1ccc([N+](=O)[O-])cc1 (stereo not drawn),T/C,"dose: 6.25 mg/kg/injection, schedule: Q01DX015 (ip), vehicle: other",94 % of control
same,T/C,"dose: 12.5 mg/kg/injection, schedule: Q01DX015 (ip), vehicle: other",105 % of control
same,T/C,"dose: 25.0 mg/kg/injection, schedule: Q01DX015 (ip), vehicle: other",88 % of control
same,T/C,"dose: 50.0 mg/kg/injection, schedule: Q01DX Z (ip), vehicle: other",92 % of control
same,T/C,"dose: 400.0 mg/kg/injection, schedule: Q01DX Z (ip), vehicle: other",86 % of control
